Reference: patent publication US20180327402A1, “TRIAZOLOPYRIDINE COMPOUNDS AND METHODS OF USE THEREOF” (Genentech, Inc., priority 2015, published 2018)
pKi: −log10 of the molar value.

How the values were obtained:
[1] = biological target: T1, isolated recombinant JAK2 kinase domain (Homo sapiens, UniProt O60674); assay: JAK enzyme assay (Caliper LabChip), JAK2; assay type: biochemical; conditions: 0.2 nM JAK2, ATP 25 μM, 22° C., 30 minutes; Morrison tight binding model
T1 construct: isolated recombinant JAK1 and JAK2 kinase domain
T1 sequence (O60674 849-1124 limits assumed): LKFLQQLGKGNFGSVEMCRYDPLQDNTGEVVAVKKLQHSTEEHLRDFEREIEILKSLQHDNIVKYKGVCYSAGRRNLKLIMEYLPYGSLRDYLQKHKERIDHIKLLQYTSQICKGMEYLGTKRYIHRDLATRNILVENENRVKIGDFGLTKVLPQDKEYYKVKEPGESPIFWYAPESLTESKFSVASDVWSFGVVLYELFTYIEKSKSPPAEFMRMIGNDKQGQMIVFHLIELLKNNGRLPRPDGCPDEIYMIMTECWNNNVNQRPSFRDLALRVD
Protocol: (§1) The activity of the isolated recombinant JAK1 and JAK2 kinase domain was measured by monitoring phosphorylation of a peptide derived from JAK3 (Val-Ala-Leu-Val-Asp-Gly-Tyr-Phe-Arg-Leu-Thr-Thr, fluorescently labeled on the N-terminus with 5-carboxyfluorescein) using the Caliper LabChip® technology (Caliper Life Sciences, Hopkinton, Mass.). To determine inhibition constants (Ki), compounds were diluted serially in DMSO and added to 50 μL kinase reactions containing purified enzyme (1.5 nM JAK1, or 0.2 nM JAK2), 100 mM HEPES buffer (pH 7.2), 0.015% Brij-35, 1.5 μM peptide substrate, ATP (25 μM), 10 mM MgCl2, 4 mM DTT at a final DMSO concentration of 2%. Reactions were incubated at 22° C. in 384-well polypropylene microtiter plates for 30 minutes and then stopped by addition of 25 μL of an EDTA containing solution (100 mM HEPES buffer (pH 7.2), 0.015% Brij-35, 150 mM EDTA), resulting in a final EDTA concentration of 50 mM. After termination of the kinase reaction, the proportion of phosphorylated product was determined as a fraction of total peptide substrate using the Caliper LabChip® 3000 according to the manufacturer's specifications. Ki values were then determined using the Morrison tight binding model (Morrison, J. F., Biochim. Biophys. Acta. 185:269-296 (1969); William, J. W. and Morrison, J. F., Meth. Enzymol., 63:437-467 (1979)) modified for ATP-competitive inhibition [Ki ═Ki,app/(1+[ATP]/Km,app)].

[2] = biological target: T2, isolated recombinant JAK1 kinase domain (Homo sapiens, UniProt P23458); assay: JAK enzyme assay (Caliper LabChip), JAK1; assay type: biochemical; conditions: 1.5 nM JAK1, ATP 25 μM, 22° C., 30 minutes; Morrison tight binding model
T2 construct: isolated recombinant JAK1 and JAK2 kinase domain
T2 sequence (P23458 875-1153 limits assumed): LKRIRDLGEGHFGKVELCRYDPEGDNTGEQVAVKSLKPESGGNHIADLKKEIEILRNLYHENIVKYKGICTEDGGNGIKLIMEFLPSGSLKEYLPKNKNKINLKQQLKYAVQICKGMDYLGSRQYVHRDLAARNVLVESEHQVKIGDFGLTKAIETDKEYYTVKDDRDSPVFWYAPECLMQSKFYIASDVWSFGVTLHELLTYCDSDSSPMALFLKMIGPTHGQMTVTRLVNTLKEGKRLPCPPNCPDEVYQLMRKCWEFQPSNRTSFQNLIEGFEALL
Protocol: as §1

Row | Compound | pKi [1] | pKi [2]
1 | CCc1cnn(C2(CC#N)CN(c3cccn4nc(Nc5cnn(Cc6cn(C7CCN(C8COC8)CC7)nn6)c5)nc34)C2)c1 [S, 2-[3-(4-ethylpyrazol-1-yl)-1-[1-[[1-[[1-[1-(oxetan-3-yl)-4-piperidyl]triazol-4-yl]methyl]pyrazol-4-yl]amino]-[1,2,4]triazolo[1,5-a]pyridin-8-yl]azetidin-3-yl]acetonitrile] | 9.24 | 9.05
2 | CSc1ccc(C2(CO)CCN(c3cccn4nc(Nc5cnn(CCN)c5)nc34)CC2)cc1 [R, [1-[2-[[1-(2-aminoethyl)pyrazol-4-yl]amino]-[1,2,4]triazolo[1,5-a]pyridin-8-yl]-4-(4-methylsulfanylphenyl)-4-piperidyl]methanol] | 8.85 | 8.54
3 | CSc1ccc(C2(CC#N)CCN(c3cccn4nc(Nc5cnn(CCN6CCN(C7CCOCC7)CC6)c5)nc34)CC2)cc1 [M, 2-[4-(4-methylsulfanylphenyl)-1-[2-[[1-[2-(4-tetrahydropyran-4-ylpiperazin-1-yl)ethyl]pyrazol-4-yl]amino]-[1,2,4]triazolo[1,5-a]pyridin-8-yl]-4-piperidyl]acetonitrile] | 9.02 | 8.48
4 | CSc1ccc(C2(CO)CCN(c3cccn4nc(Nc5cnn(CCN6CCC(N7CCOCC7)CC6)c5)nc34)CC2)cc1 [J, [4-(4-methylsulfanylphenyl)-1-[2-[[1-[2-(4-morpholino-1-piperidyl)ethyl]pyrazol-4-yl]amino]-[1,2,4]triazolo[1,5-a]pyridin-8-yl]-4-piperidyl]methanol] | 9.33 | 8.77
5 | CSc1ccc(C2(CC#N)CCN(c3cccn4nc(Nc5cnn(CCN6CCN(C(=O)N(C)C)CC6)c5)nc34)CC2)cc1 [Q, 4-[2-[4-[[8-[4-(cyanomethyl)-4-(4-methylsulfanylphenyl)-1-piperidyl]-[1,2,4]triazolo[1,5-a]pyridin-2-yl]amino]pyrazol-1-yl]ethyl]-N,N-dimethyl-piperazine-1-carboxamide] | 9.17 | 8.54
6 | Cn1cc(Nc2nc3c(N4CCC(CO)(c5ccc(Cl)cc5)CC4)cccn3n2)cn1 [A, [4-(4-chlorophenyl)-1-[2-[(1-methylpyrazol-4-yl)amino]-[1,2,4]triazolo[1,5-a]pyridin-8-yl]-4-piperidyl]methanol] | 9.89 | 9.74
7 | Cn1cc(Nc2nc3c(N4CCC(CN)(c5ccc(Cl)cc5)CC4)cccn3n2)cn1 [D, 8-[4-(aminomethyl)-4-(4-chlorophenyl)-1-piperidyl]-N-(1-methylpyrazol-4-yl)-[1,2,4]triazolo[1,5-a]pyridin-2-amine] | 9.03 | 9.26
8 | Cn1cc(Nc2nc3c(N4CCC(CNCC(F)(F)F)(c5ccc(Cl)cc5)CC4)cccn3n2)cn1 [G, 8-[4-(4-chlorophenyl)-4-[(2,2,2-trifluoroethylamino)methyl]-1-piperidyl]-N-(1-methylpyrazol-4-yl)-[1,2,4]triazolo[1,5-a]pyridin-2-amine] | 8.54 | 8.00
9 | CSc1ccc(C2(CC#N)CCN(c3cccn4nc(Nc5cnn(CCNC6COC6)c5)nc34)CC2)cc1 [P, 2-[4-(4-methylsulfanylphenyl)-1-[2-[[1-[2-(oxetan-3-ylamino)ethyl]pyrazol-4-yl]amino]-[1,2,4]triazolo[1,5-a]pyridin-8-yl]-4-piperidyl]acetonitrile] | 9.14 | 8.62

Other lines, results leading:

Row | pKi [1] | pKi [2] | Compound
10 | 9.70 | 9.09 | COCCOc1ccc(COc2ccc(-c3cccn4nc(Nc5cnn(C6CCNCC6)c5)nc34)cc2)cn1 [Compound 3-3, 8-[4-[[6-(2-methoxyethoxy)-3-pyridyl]methoxy]phenyl]-N-[1-(4-piperidyl)pyrazol-4-yl]-[1,2,4]triazolo[1,5-a]pyridin-2-amine]
11 | 9.80 | 9.28 | OCC1(c2ccc(Cl)cc2)CCN(c2cccn3nc(Nc4cnn(CCN5CCOCC5)c4)nc23)CC1 [Compound 1-2, [4-(4-chlorophenyl)-1-[2-[[1-(2-morpholinoethyl)pyrazol-4-yl]amino]-[1,2,4]triazolo[1,5-a]pyridin-8-yl]-4-piperidyl]methanol; formic acid]
12 | 9.72 | 9.57 | CN1CCC(n2cc(Nc3nc4c(N5CCC(CO)(c6ccc(Cl)cc6)CC5)cccn4n3)cn2)CC1 [Compound 1-12, [4-(4-chlorophenyl)-1-[2-[[1-(1-methyl-4-piperidyl)pyrazol-4-yl]amino]-[1,2,4]triazolo[1,5-a]pyridin-8-yl]-4-piperidyl]methanol; formic acid]
13 | 10.05 | 9.96 | OCCn1cc(Nc2nc3c(N4CCC(CO)(c5ccc(Cl)cc5)CC4)cccn3n2)cn1 [Compound 1-15, 2-[4-[[8-[4-(4-chlorophenyl)-4-(hydroxymethyl)-1-piperidyl]-[1,2,4]triazolo[1,5-a]pyridin-2-yl]amino]pyrazol-1-yl]ethanol]
14 | 9.92 | 9.35 | OCC1(c2ccc(Cl)cc2)CCN(c2cccn3nc(Nc4cnn(Cc5ccncc5)c4)nc23)CC1 [Compound 1-6, [4-(4-chlorophenyl)-1-[2-[[1-(4-pyridylmethyl)pyrazol-4-yl]amino]-[1,2,4]triazolo[1,5-a]pyridin-8-yl]-4-piperidyl]methanol; formic acid]
15 | 9.92 | 9.64 | OCC1(c2ccc(Cl)cc2)CCN(c2cccn3nc(Nc4cnn(C5CCNCC5)c4)nc23)CC1 [Compound 1-5, [4-(4-chlorophenyl)-1-[2-[[1-(4-piperidyl)pyrazol-4-yl]amino]-[1,2,4]triazolo[1,5-a]pyridin-8-yl]-4-piperidyl]methanol; formic acid]
16 | 9.15 | 9.06 | O=C(CCC(F)(F)F)N1CC=C(c2cccn3nc(Nc4cnn(CCO)c4)nc23)CC1 [Compound 2-2, 4,4,4-trifluoro-1-[4-[2-[[1-(2-hydroxyethyl)pyrazol-4-yl]amino]-[1,2,4]triazolo[1,5-a]pyridin-8-yl]-3,6-dihydro-2H-pyridin-1-yl]butan-1-one]
17 | 9.96 | 9.57 | N#CCCN1CCC(n2cc(Nc3nc4c(N5CCC(CO)(c6ccc(Cl)cc6)CC5)cccn4n3)cn2)CC1 [Compound 1-4, 3-[4-[4-[[8-[4-(4-chlorophenyl)-4-(hydroxymethyl)-1-piperidyl]-[1,2,4]triazolo[1,5-a]pyridin-2-yl]amino]pyrazol-1-yl]-1-piperidyl]propanenitrile]
